Laboratory results from PubChem BioAssay (NCI).
Where “and” joins values, the source holds several entries; their conditions need not be identical. Identical values can stand only once.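 Dose response: 5 concentrations. Exposure: 48 h. Format: 96-well plates. Endpoint: linear interpolation; highest concentration if not reached. GI50 marks 50% less growth. Definition used: TGI = concentration required for complete inhibition of growth.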

Experiments:
Assay in all cases: growth of human tumour cells (NCI), 48 h
OVCAR-8 ovarian = tested on: OVCAR-8 ovarian
SK-MEL-2 melanoma = tested on: SK-MEL-2 melanoma
NCI-H460 lung = tested on: NCI-H460 lung
CAKI-1 renal = tested on: CAKI-1 renal
RPMI-8226 leukemia = tested on: RPMI-8226 leukemia
CCRF-CEM leukemia = tested on: CCRF-CEM leukemia
M14 melanoma = tested on: M14 melanoma
TK-10 renal = tested on: TK-10 renal
LOX IMVI melanoma = tested on: LOX IMVI melanoma
NCI/ADR-RES ovarian = tested on: NCI/ADR-RES ovarian

Cc1ccc(NC(=O)CCC(CC(=O)C(C)(C)C)=NNC(=O)C(=O)NN)cc1C
TGI (OVCAR-8 ovarian): > 100 µM | TGI (SK-MEL-2 melanoma): > 100 µM | TGI (NCI-H460 lung): > 100 µM | TGI (CAKI-1 renal): > 100 µM | TGI (RPMI-8226 leukemia): > 100 µM | TGI (CCRF-CEM leukemia): > 100 µM | TGI (M14 melanoma): > 100 µM | TGI (TK-10 renal): > 100 µM | TGI (LOX IMVI melanoma): > 100 µM

Cc1[nH]c2ccccc2c1C1Cc2ccccc2N1C(=O)/C=C/C=C/c1ccccc1 (stereo not given)
TGI (OVCAR-8 ovarian): > 100 µM | TGI (SK-MEL-2 melanoma): > 100 µM | TGI (NCI-H460 lung): > 100 µM | TGI (CAKI-1 renal): > 100 µM | TGI (RPMI-8226 leukemia): > 100 µM | TGI (CCRF-CEM leukemia): > 100 µM | TGI (M14 melanoma): > 100 µM | TGI (TK-10 renal): > 100 µM | TGI (LOX IMVI melanoma): > 100 µM

COC(=O)/C=C1/CCC2[C@@H](C(=O)CC3[C@]2(C)CCC[C@@]3(C)C(=O)OC)C1C (stereo not given in full)
TGI (OVCAR-8 ovarian): 34.9 µM | TGI (SK-MEL-2 melanoma): 35.7 µM | TGI (NCI-H460 lung): 51.7 µM | TGI (CAKI-1 renal): 17.4 µM | TGI (RPMI-8226 leukemia): 14.4 µM | TGI (CCRF-CEM leukemia): 17.6 µM | TGI (M14 melanoma): 29.1 µM | TGI (TK-10 renal): 36.1 µM

CC(=O)OC(/C=C1/C=CC(=O)O1)COC(=O)c1ccccc1 (stereo not given)
TGI (OVCAR-8 ovarian): > 31.2 µM | TGI (NCI-H460 lung): > 31.2 µM | TGI (CAKI-1 renal): > 31.2 µM | TGI (RPMI-8226 leukemia): > 31.2 µM | TGI (CCRF-CEM leukemia): > 31.2 µM | TGI (M14 melanoma): > 31.2 µM | TGI (TK-10 renal): > 31.2 µM | TGI (LOX IMVI melanoma): > 31.2 µM

C/C(=C\C(C)COCc1ccccc1)[C@H](COCc1ccccc1)OCc1ccccc1 (stereo not given in full)
TGI (OVCAR-8 ovarian): > 100 µM | TGI (SK-MEL-2 melanoma): > 100 µM | TGI (NCI-H460 lung): > 100 µM | TGI (RPMI-8226 leukemia): > 100 µM | TGI (CCRF-CEM leukemia): > 100 µM | TGI (M14 melanoma): > 100 µM | TGI (TK-10 renal): > 100 µM | TGI (LOX IMVI melanoma): > 100 µM

CCOC(=O)/C(=C\c1ccc(O)c(OC)c1)C(=O)c1ccccc1
TGI (OVCAR-8 ovarian): 18.3 µM | TGI (SK-MEL-2 melanoma): 34.8 µM | TGI (NCI-H460 lung): > 60.2 µM | TGI (CAKI-1 renal): > 58.7 µM | TGI (RPMI-8226 leukemia): 42.1 µM | TGI (CCRF-CEM leukemia): 27.4 µM | TGI (M14 melanoma): > 48 µM | TGI (TK-10 renal): > 57.5 µM | TGI (LOX IMVI melanoma): 21.7 µM

COc1cc(/C=C2/C(=O)N(C(=O)OC(C)C)C(Cc3cc(OC)c(OC)c(C)c3OC)C(=O)N2Cc2ccccc2)c(OC)c(C)c1OC (stereo not given)
TGI (OVCAR-8 ovarian): > 100 µM | TGI (SK-MEL-2 melanoma): > 100 µM | TGI (NCI-H460 lung): > 100 µM | TGI (CAKI-1 renal): > 100 µM | TGI (RPMI-8226 leukemia): > 100 µM | TGI (CCRF-CEM leukemia): > 100 µM | TGI (M14 melanoma): > 100 µM | TGI (TK-10 renal): > 100 µM | TGI (LOX IMVI melanoma): > 100 µM

Cc1cc(O)cc2oc(=O)c3c(O)cc(O)cc3c12
TGI (OVCAR-8 ovarian): > 100 µM | TGI (SK-MEL-2 melanoma): > 100 µM | TGI (NCI-H460 lung): 30.8 µM | TGI (CAKI-1 renal): 90 µM | TGI (CCRF-CEM leukemia): > 100 µM | TGI (M14 melanoma): > 100 µM | TGI (TK-10 renal): > 100 µM | TGI (LOX IMVI melanoma): 48.1 µM

CCCCCCCCCCCCCC(=O)O[C@H]1CC[C@H](NC(=O)[C@H](OC)[C@H](O)[C@@H](O)[C@H](O)/C=C/C(C)C)C(=O)NC1
GI50 (OVCAR-8 ovarian): 0.00181 µM | TGI (OVCAR-8 ovarian): 20.5 µM and 14.3 µM | TGI (SK-MEL-2 melanoma): 51.2 µM and 9.49 µM | TGI (RPMI-8226 leukemia): 11.6 µM and 10.2 µM | GI50 (NCI/ADR-RES ovarian): 3.58 µM | TGI (NCI/ADR-RES ovarian): 51.2 µM and 26.3 µM | TGI (CCRF-CEM leukemia): 8.44 µM and 10.7 µM | TGI (M14 melanoma): 0.345 µM and 0.556 µM and 0.129 µM | TGI (LOX IMVI melanoma): 9.4 µM and 1.15 µM

Cc1ccc(NC(=O)C(=O)C2C(=O)N(c3ccccc3)N=C2N)cc1C (stereo not given)
TGI (OVCAR-8 ovarian): > 100 µM | TGI (CAKI-1 renal): > 100 µM | TGI (RPMI-8226 leukemia): > 100 µM | TGI (CCRF-CEM leukemia): > 100 µM | TGI (M14 melanoma): > 100 µM | TGI (TK-10 renal): > 100 µM

O=c1/c(=C/c2cccc([N+](=O)[O-])c2)sc2nc3ccccc3n12
TGI (OVCAR-8 ovarian): > 100 µM | TGI (SK-MEL-2 melanoma): > 100 µM | TGI (NCI-H460 lung): > 100 µM | TGI (CCRF-CEM leukemia): > 100 µM | TGI (M14 melanoma): > 100 µM | TGI (TK-10 renal): > 100 µM | TGI (LOX IMVI melanoma): > 100 µM

CCOC12OC3=C(CC1CC1=C(CCC1=O)O2)C(=O)CC3 (stereo not given)
TGI (OVCAR-8 ovarian): > 100 µM | TGI (SK-MEL-2 melanoma): > 100 µM | TGI (NCI-H460 lung): > 100 µM | TGI (CAKI-1 renal): > 100 µM | TGI (RPMI-8226 leukemia): > 100 µM | TGI (CCRF-CEM leukemia): > 100 µM | TGI (M14 melanoma): > 100 µM | TGI (TK-10 renal): > 100 µM | TGI (LOX IMVI melanoma): > 100 µM

CC1=NN(c2ccccc2)C(=O)C1=C1SCCS1
TGI (OVCAR-8 ovarian): > 100 µM | TGI (SK-MEL-2 melanoma): > 100 µM | TGI (NCI-H460 lung): > 100 µM | TGI (CAKI-1 renal): > 100 µM | TGI (RPMI-8226 leukemia): > 49.5 µM | TGI (CCRF-CEM leukemia): > 65.5 µM | TGI (M14 melanoma): > 100 µM | TGI (TK-10 renal): > 100 µM | TGI (LOX IMVI melanoma): > 63.4 µM

COc1ccc2c(=O)c(C)c(-c3ccccc3)oc2c1CN(C)C
TGI (OVCAR-8 ovarian): > 100 µM | TGI (NCI-H460 lung): > 100 µM | TGI (CAKI-1 renal): > 100 µM | TGI (RPMI-8226 leukemia): > 100 µM | TGI (CCRF-CEM leukemia): > 100 µM | TGI (M14 melanoma): > 100 µM | TGI (TK-10 renal): > 100 µM | TGI (LOX IMVI melanoma): > 100 µM

CC1(C)COC(C23C4C5C2C2C3C4C52I)=N1 (stereo not given)
TGI (OVCAR-8 ovarian): > 100 µM | TGI (NCI-H460 lung): > 100 µM | TGI (CAKI-1 renal): > 100 µM | TGI (RPMI-8226 leukemia): > 100 µM | TGI (CCRF-CEM leukemia): > 100 µM | TGI (M14 melanoma): > 100 µM | TGI (TK-10 renal): > 100 µM

CCOC(=O)C12CCCC1(O)N(NC(=O)c1ccccc1)C(C)=C2C(=O)OC (stereo not given)
TGI (OVCAR-8 ovarian): > 100 µM | TGI (SK-MEL-2 melanoma): > 100 µM | TGI (NCI-H460 lung): > 100 µM | TGI (CAKI-1 renal): > 100 µM | TGI (RPMI-8226 leukemia): > 100 µM | TGI (CCRF-CEM leukemia): > 100 µM | TGI (M14 melanoma): > 100 µM | TGI (TK-10 renal): > 100 µM | TGI (LOX IMVI melanoma): > 100 µM

CCOC(C)C(/C=N/NC(N)=S)=NNC(N)=S (stereo not given)
TGI (OVCAR-8 ovarian): > 100 µM | TGI (SK-MEL-2 melanoma): > 85.3 µM | TGI (NCI-H460 lung): > 100 µM | TGI (CAKI-1 renal): > 100 µM | TGI (RPMI-8226 leukemia): > 100 µM | TGI (CCRF-CEM leukemia): > 100 µM | TGI (TK-10 renal): > 100 µM | TGI (LOX IMVI melanoma): > 100 µM
